Each structure is given as a SMILES string.

Our source for the AC50 values is patent US20160046579A1, “THERAPEUTIC COMPOUNDS AND COMPOSITIONS” (AGIOS PHARMACEUTICALS, INC., priority 2013, published 2016).

One experiment concerns the target PKR R532W (Homo sapiens, UniProt P30613, R532W). As to the kind of experiment: PKR Mutant Assay, dose response (AC50), PKR R532W. It counts as biochemical. As to conditions: PKR R532W mutant enzyme. How it is done:
(§1) • PKR or PKR mutant enzyme solution was diluted in assay buffer. • 2 μL of test compound was added into wells first, and then 180 μL reaction mix was added. • Reactions mixture with test compound was assembled except for ADP, and plates were stored for 60 minutes at room temperature. • 20 uL ADP was added to start reaction at room temperature and reaction progress was measured as changes in absorbance at 340 nm wavelength at room temperature.
(§2) Test Compound Preparation: • Test compound stock was made at 100× concentration in 100% DMSO (10 mM) • 1 to 3 dilutions were made for 11 points (i.e. 50 μl of first concentration added to 100 μl 100% DMSO to yield 3.33 mM, 50 μl of this added to 100 μl DMSO to yield 1.11 mM, and so forth) • 1 to 100 dilution into assay (2 μl in 200 μl) yielded starting concentration of 100 μM, decreasing 3 fold for 11 points.

The next experiment concerns the target PKR R510Q (Homo sapiens, UniProt P30613, R510Q). Nature of the experiment: PKR Mutant Assay, dose response (AC50), PKR R510Q. The format is biochemical. The note with it: PKR R510Q mutant enzyme. How it is done: as §1, §2
Experiment [1] addresses T1, wt PKR (Homo sapiens, UniProt P30613). Nature of the experiment: PKR Mutant Assay, dose response (AC50), wild type PKR enzyme. It counts as biochemical. As to conditions: wild type PKR enzyme. How it is done: as §1, §2
In experiment [2] the target is T1, wt PKR. Nature of the experiment: wt PKR cell based assay.

Sequence of PKR R510Q (P30613 whole entry R510Q): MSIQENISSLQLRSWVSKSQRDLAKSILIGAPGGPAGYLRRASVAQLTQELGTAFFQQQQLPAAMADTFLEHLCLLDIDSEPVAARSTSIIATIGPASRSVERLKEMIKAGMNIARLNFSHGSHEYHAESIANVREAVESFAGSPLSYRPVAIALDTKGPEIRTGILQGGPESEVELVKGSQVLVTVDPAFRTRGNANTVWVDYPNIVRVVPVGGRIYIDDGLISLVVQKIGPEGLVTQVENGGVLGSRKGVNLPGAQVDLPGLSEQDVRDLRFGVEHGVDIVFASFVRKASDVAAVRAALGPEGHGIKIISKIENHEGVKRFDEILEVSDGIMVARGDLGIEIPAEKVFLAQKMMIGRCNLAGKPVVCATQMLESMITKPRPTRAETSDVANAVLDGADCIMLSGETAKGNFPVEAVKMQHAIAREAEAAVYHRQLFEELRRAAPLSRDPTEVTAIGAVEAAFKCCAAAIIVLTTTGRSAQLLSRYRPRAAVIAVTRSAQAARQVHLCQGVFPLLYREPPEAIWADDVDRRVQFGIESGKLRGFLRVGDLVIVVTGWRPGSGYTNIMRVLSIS
T1 sequence (P30613 whole entry): as the sequence (P30613 whole entry R510Q) above, with Q510R counted along it
Sequence of PKR R532W (P30613 whole entry R532W): as the sequence (P30613 whole entry R510Q) above, with Q510R, R532W counted along it

`CC(F)(F)CCC1(O)CCN(C(=O)c2ccc(NS(=O)(=O)c3cc(F)cc4sc(N)nc34)cc2C#N)CC1` [Compound 491, 2-amino-N-(3-cyano-4-(4-(3,3-difluorobutyl)-4-hydroxypiperidine-1-carbonyl)phenyl)-6-fluorobenzo[d]thiazole-4-sulfonamide]: the AC50 on PKR R532W, at PKR R510Q, at wt PKR [1] and at wt PKR [2] was 101 to 1000 nM in each case.
Take `O=C(c1ccc(NS(=O)(=O)c2cccc3scnc23)cc1)N1CCC(O)(Cc2cn[nH]c2)CC1` [Compound 498, N-(4-(4-((1H-pyrazol-4-yl)methyl)-4-hydroxypiperidine-1-carbonyl)phenyl)benzo[d]thiazole-4-sulfonamide]: the AC50 at PKR R532W is under 100 nM; at PKR R510Q it was 101 to 1000 nM; at wt PKR [1], under 100 nM; at wt PKR [2], 101 to 1000 nM.
Turning to `CC(F)(F)CCC1(O)CCN(C(=O)c2ccc(NS(=O)(=O)c3cccc4scnc34)cc2F)CC1` [Compound 469, N-(4-(4-(3,3-difluorobutyl)-4-hydroxypiperidine-1-carbonyl)-3-fluorophenyl)benzo[d]thiazole-4-sulfonamide], the AC50 was 101 to 1000 nM on PKR R532W, 101 to 1000 nM at PKR R510Q, 101 to 1000 nM on wt PKR [1] and 1010 to 10000 nM on wt PKR [2].
For `Nc1cnc2c(S(=O)(=O)Nc3ccc(C(=O)N4CCC(O)(c5cccc(F)c5F)CC4)cc3)cccc2n1` [Compound 493, 2-amino-N-(4-(4-(2,3-difluorophenyl)-4-hydroxypiperidine-1-carbonyl)phenyl)quinoxaline-5-sulfonamide], the AC50 on PKR R532W, at PKR R510Q, on wt PKR [1] and on wt PKR [2] was under 100 nM in each case.
`Cc1noc(C)c1CC1(O)CCN(C(=O)c2ccc(NS(=O)(=O)c3cccc4scnc34)cc2)CC1` [Compound 520, N-(4-(4-((3,5-dimethylisoxazol-4-yl)methyl)-4-hydroxypiperidine-1-carbonyl)phenyl)benzo[d]thiazole-4-sulfonamide]: the AC50 was under 100 nM at PKR R532W, 101 to 1000 nM on PKR R510Q, under 100 nM on wt PKR [1] and 101 to 1000 nM at wt PKR [2].
For `O=C(c1ccc(NS(=O)(=O)c2cccc3nccnc23)cc1)N1CCC(O)(C2CCC(O)CC2)CC1` (stereo not drawn) [Compound 502, N-(4-(4-hydroxy-4-(4-hydroxycyclohexyl)piperidine-1-carbonyl)phenyl)quinoxaline-5-sulfonamide], the AC50 on PKR R532W, at PKR R510Q, at wt PKR [1] and at wt PKR [2] was 101 to 1000 nM each time.
